Data: patent publication US20030199671A1, “Binding molecules for Fc-region polypeptides” (priority 2001, published 2003)
Positions of bridges follow the written chain, without caps; N, C: chain ends. Residues, ends and D or L forms follow the SMILES beside them. *: point of attachment. 5FAM = O=C1OC2(c3ccc(O)cc3Oc3cc(O)ccc32)c2ccc(C(=O)*)cc21

Experiments:
human plasma IgG1 = target: T1, human plasma IgG1 (Homo sapiens, UniProt P01857); test: Fluorescence anisotropy binding, fluorescein-labeled peptide; conditions: 2 nM labeled peptide; PBS with 0.01% Tween 20
T1 construct: the individual human plasma IgG isoforms: IgG1, IgG2, IgG3, or IgG4; purchased Calbiochem; host or cells: human plasma
T1 sequence (P01857 1-330 isoform P01857-1): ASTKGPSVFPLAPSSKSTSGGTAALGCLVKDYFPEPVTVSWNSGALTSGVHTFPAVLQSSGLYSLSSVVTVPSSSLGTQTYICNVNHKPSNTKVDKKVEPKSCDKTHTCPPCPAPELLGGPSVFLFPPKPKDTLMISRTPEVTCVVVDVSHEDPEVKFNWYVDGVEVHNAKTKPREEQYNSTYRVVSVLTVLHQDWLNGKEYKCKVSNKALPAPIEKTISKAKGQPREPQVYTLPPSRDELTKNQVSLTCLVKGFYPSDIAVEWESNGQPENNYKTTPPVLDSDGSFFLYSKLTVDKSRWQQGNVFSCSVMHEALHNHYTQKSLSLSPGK
Protocol: (§1) All measurements were performed in 384 well microplates with 20 nM fluorescein-labeled peptide and various concentrations of the IgG isoform in a volume of between 10 and 20 μl using a Tecan Polarion fluorescence polarization plate reader. All binding buffers included 0.01% (v/v) Tween 20 to prevent peptide adsorption to the microplate. The binding mixture was equilibrated for 10 minutes in the microplate at 30° C. prior to performing the measurement.
(§2) Peptides were synthesized, fluorescein-labeled and HPLC purified as described above. Binding studies were performed using either a mixture of human plasma IgG isoforms (the Fc protein) or the individual human plasma IgG isoforms: IgG1, IgG2, IgG3, or IgG4.
(§3) Measurements were performed in 384-well microplates with 2 nM fluorescein-labeled peptide and a varied concentration of the IgG isoform target in a volume of 10 μl using a Tecan Polarion fluorescence polarization plate reader. The Fc binding buffer was 50 mM Tris-HCl, 200 mM NaCl, pH 8.0, 0.01% Tween 20. The IgG binding buffer was PBS with 0.01% Tween 20. The binding mixtures were equilibrated for 10 minutes in the microplate at 30° C. prior to performing the measurements.

human plasma IgG2 = target: T2, human plasma IgG2 (Homo sapiens, UniProt P01859); test: as above; conditions: 2 nM labeled peptide; PBS with 0.01% Tween 20
T2 construct: the individual human plasma IgG isoforms: IgG1, IgG2, IgG3, or IgG4; purchased Calbiochem; host or cells: human plasma
T2 sequence (P01859 1-326 isoform P01859-1): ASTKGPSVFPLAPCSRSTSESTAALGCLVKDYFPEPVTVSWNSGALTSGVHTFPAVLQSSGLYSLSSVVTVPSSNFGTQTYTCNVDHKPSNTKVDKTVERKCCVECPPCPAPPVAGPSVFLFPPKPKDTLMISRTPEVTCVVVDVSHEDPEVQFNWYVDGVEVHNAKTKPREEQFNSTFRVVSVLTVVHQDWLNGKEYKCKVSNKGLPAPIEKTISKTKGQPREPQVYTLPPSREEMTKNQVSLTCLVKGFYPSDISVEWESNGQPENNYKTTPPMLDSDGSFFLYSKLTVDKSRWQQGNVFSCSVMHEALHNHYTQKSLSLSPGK
Protocol: as §1, §2, §3

[1] = target: Fc (mixture of human plasma IgG isoforms); test: as above; conditions: 2 nM labeled peptide; 50 mM Tris-HCl, 200 mM NaCl, pH 8.0, 0.01% Tween 20
Protocol: (§4) Peptides were synthesized by BACHEM Bioscience, Inc., (King of Prussia, Pa.), fluorescein labeled and purified by HPLC. Binding studies were performed using either a mixture of human plasma IgG isoforms (the Fc target) or the individual human plasma IgG isoforms: IgG1, IgG2, IgG3, or IgG4. All Fc target proteins were obtained from Calbiochem.
as §1, §2, §3

human plasma IgG4 = target: T3, human plasma IgG4 (Homo sapiens, UniProt P01861); test: as above; conditions: 2 nM labeled peptide; PBS with 0.01% Tween 20
T3 construct: the individual human plasma IgG isoforms: IgG1, IgG2, IgG3, or IgG4; purchased Calbiochem; host or cells: human plasma
T3 sequence (P01861 1-327 isoform P01861-1): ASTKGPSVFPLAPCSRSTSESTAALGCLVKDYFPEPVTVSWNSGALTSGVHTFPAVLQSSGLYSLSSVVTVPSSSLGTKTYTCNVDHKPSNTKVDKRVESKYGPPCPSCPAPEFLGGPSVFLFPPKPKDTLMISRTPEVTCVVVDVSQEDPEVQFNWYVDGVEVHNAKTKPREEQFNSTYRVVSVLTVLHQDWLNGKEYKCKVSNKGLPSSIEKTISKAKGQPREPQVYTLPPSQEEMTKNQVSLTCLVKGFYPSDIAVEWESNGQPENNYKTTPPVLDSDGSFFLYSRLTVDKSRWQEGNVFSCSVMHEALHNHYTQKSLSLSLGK
Protocol: as §4, §1, §2, §3

human IgG1 = target: T4, human IgG1 (Homo sapiens, UniProt P01857); assay type: binding; conditions: peptide immobilized on NHS activated sepharose 4 fast flow, target ligand density 2.0 μmole/ml; batch filterplate; hIgG1
T4 construct: all human subtypes derived from myeloma patients; purchased Calbiochem 400120; host or cells: myeloma patients
T4 sequence (P01857 1-330 isoform P01857-1): as the sequence (P01857 1-330 isoform P01857-1) above
Outline: (§5)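 Percent bound = control mass minus unbound mass, with unbound IgG read at A280 after 1–1.5 h room-temperature incubation with the peptide resin in PBST pH 7.2 or TBST pH 7.5. Bound IgG was eluted 30–60 min with 0.1 M citrate pH 4.0 and/or bicarbonate pH 8.5. Recovery is given as percent of total load.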

human IgG2 = target: T5, human IgG2 (Homo sapiens, UniProt P01859); assay type: binding; conditions: peptide immobilized on NHS activated sepharose 4 fast flow, target ligand density 2.0 μmole/ml; batch filterplate; hIgG2
T5 construct: all human subtypes derived from myeloma patients; purchased Calbiochem 400122; host or cells: myeloma patients
T5 sequence (P01859 1-326 isoform P01859-1): as the sequence (P01859 1-326 isoform P01859-1) above
Outline: (§6)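 Read-out is A280 of unbound IgG (1.4 mg/ml extinction coefficient), with percent bound derived against non-filtered or negative controls. Targets were incubated with immobilized peptides in PBST or TBST for 1-1.5 h at room temperature. Hydrolyzed Sepharose and immobilized Protein A serve as negative and positive controls.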

human IgG = assay type: binding; conditions: peptide immobilized on NHS activated sepharose 4 fast flow, target ligand density 2.0 μmole/ml; batch filterplate; hIgG
Outline: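 Species specificity was assessed by static binding of unfractionated IgG to peptide resin in pH 7.2 phosphate or pH 7.5 Tris buffer with 0.01% Tween 20. Bound fraction was calculated from A280 of unbound target.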

[2] = Solubility in aqueous coupling buffer; assay type: physicochemical; conditions: aqueous coupling conditions
Excerpt: The varying degree of binding may be due to, in part, to lower coupling efficiencies as a result of varying degrees of solubility in aqueous coupling conditions. […] However, coupling efficiencies of all nine DX253 variants monitored by rp-HPLC was high and averaged>85%. Actual ligand densities were not determined.

IgG3 = IgG3 (Homo sapiens, UniProt P01860); assay type: binding; design: all human subtypes derived from myeloma patients; purchased Calbiochem 400124; host or cells: myeloma patients; conditions: peptide immobilized on NHS activated sepharose 4 fast flow, target ligand density 2.0 μmole/ml; batch filterplate; hIgG3
IgG3, sequence (P01860 1-377 isoform P01860-1): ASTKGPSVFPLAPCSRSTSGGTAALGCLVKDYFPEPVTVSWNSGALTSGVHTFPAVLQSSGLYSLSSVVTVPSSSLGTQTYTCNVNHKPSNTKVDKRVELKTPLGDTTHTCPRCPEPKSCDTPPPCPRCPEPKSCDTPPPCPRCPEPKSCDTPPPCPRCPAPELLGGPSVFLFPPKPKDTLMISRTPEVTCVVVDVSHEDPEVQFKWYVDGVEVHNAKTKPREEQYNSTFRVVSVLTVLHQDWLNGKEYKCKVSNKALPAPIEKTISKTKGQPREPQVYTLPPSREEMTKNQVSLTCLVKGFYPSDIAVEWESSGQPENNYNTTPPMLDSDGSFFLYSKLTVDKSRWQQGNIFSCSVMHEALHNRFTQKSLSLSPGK
Outline: as §5

IgG4 = IgG4 (Homo sapiens, UniProt P01861); assay type: binding; design: all human subtypes derived from myeloma patients; purchased Calbiochem 400126; host or cells: myeloma patients; conditions: peptide immobilized on NHS activated sepharose 4 fast flow, target ligand density 2.0 μmole/ml; batch filterplate; hIgG4
IgG4, sequence (P01861 1-327 isoform P01861-1): as the sequence (P01861 1-327 isoform P01861-1) above
Outline: as §6

KD (μM) IgG1 (human plasma IgG1)	KD (μM) IgG2 (human plasma IgG2)	KD (μM) Fc [1]	KD (μM) IgG4 (human plasma IgG4)	Batch Binding (% Capture of Total Load) hIgG1 (human IgG1)	Batch Binding (% Capture of Total Load) hIgG2 (human IgG2)	Batch Binding (% Capture of Total Load) hIgG (human IgG)	Solubility in aqueous coupling buffer [2]	Batch Binding (% Capture of Total Load) hIgG3 (IgG3)	Batch Binding (% Capture of Total Load) hIgG4 (IgG4)	Compound
No binding	No binding	No binding	No binding	–	–	–	–	–	–	CC(=O)N[C@@H](C)C(=O)NCC(=O)N[C@@H](CCCCN)C(=O)N[C@@H](Cc1ccc(O)cc1)C(=O)N[C@@H](Cc1c[nH]c2ccccc12)C(=O)N[C@H]1CSSC[C@@H](C(=O)N[C@@H](CCCCN)C(=O)N[C@H](C(=O)NCC(=O)N[C@H](C(=O)N2CCC[C@H]2C(=O)NCC(=O)N2CCC[C@H]2C(=O)N[C@@H](CCC(=O)O)C(=O)NCC(=O)NCC(=O)NCC(=O)N[C@@H](CCCCNC(=O)c2ccc3c(c2)C(=O)OC32c3ccc(O)cc3Oc3cc(O)ccc32)C(N)=O)[C@@H](C)O)[C@@H](C)O)NC(=O)[C@H](CCC(N)=O)NC(=O)[C@H](CC(C)C)NC(=O)CNC(=O)[C@H](Cc2c[nH]c3ccccc23)NC(=O)[C@H](Cc2ccccc2)NC(=O)[C@H](CO)NC1=O [DX300] (Ac-AGKYWCSFWGLQCKTGTPGPEGGGK(5FAM)-NH2; disulfide 6-13)
–	–	–	–	43%	34%	36%	not fully soluble	0%	22%	CC(=O)N[C@@H](CO)C(=O)N[C@@H](CCCNC(=N)N)C(=O)N[C@@H](C)C(=O)N[C@H]1CSSC[C@@H](C(=O)N[C@@H](C)C(=O)NCC(=O)N[C@@H](Cc2c[nH]cn2)C(=O)N[C@@H](CCC(=O)O)C(=O)N2CCC[C@H]2C(=O)NCC(=O)N2CCC[C@H]2C(=O)N[C@@H](CCC(=O)O)C(=O)NCC(=O)NCC(=O)NCC(=O)N[C@@H](CCCCN)C(N)=O)NC(=O)[C@H](Cc2c[nH]c3ccccc23)NC(=O)[C@H](C(C)C)NC(=O)[C@H](CC(C)C)NC(=O)[C@H](C)NC(=O)CNC(=O)[C@H](CO)NC(=O)[C@H](Cc2c[nH]c3ccccc23)NC(=O)[C@H](CC(=O)O)NC(=O)[C@H](CCCNC(=N)N)NC(=O)[C@H](CO)NC1=O [DX1139] (Ac-SRACSRDWSGALVWCAGHEPGPEGGGK-NH2; disulfide 4-15)
–	–	–	–	43%	29%	40%	not fully soluble	0%	20%	CC(=O)N[C@@H](CCCNC(=N)N)C(=O)N[C@@H](CCCNC(=N)N)C(=O)N[C@@H](C)C(=O)N[C@H]1CSSC[C@@H](C(=O)N[C@@H](C)C(=O)NCC(=O)N[C@@H](Cc2c[nH]cn2)C(=O)N[C@@H](CCC(=O)O)C(=O)N2CCC[C@H]2C(=O)NCC(=O)N2CCC[C@H]2C(=O)N[C@@H](CCC(=O)O)C(=O)NCC(=O)NCC(=O)NCC(=O)N[C@@H](CCCCN)C(N)=O)NC(=O)[C@H](Cc2c[nH]c3ccccc23)NC(=O)[C@H](C(C)C)NC(=O)[C@H](CC(C)C)NC(=O)[C@H](C)NC(=O)CNC(=O)[C@H](CO)NC(=O)[C@H](Cc2c[nH]c3ccccc23)NC(=O)[C@H](CC(=O)O)NC(=O)[C@H](CCCNC(=N)N)NC(=O)[C@H](CO)NC1=O [DX1140] (Ac-RRACSRDWSGALVWCAGHEPGPEGGGK-NH2; disulfide 4-15)
–	–	–	–	83%	80%	73%	not fully soluble	0%	50%	CC(=O)NCC(=O)N[C@H]1CSSC[C@@H](C(=O)N[C@@H](C)C(=O)NCC(=O)N[C@@H](Cc2c[nH]cn2)C(=O)N[C@@H](CCC(=O)O)C(=O)N2CCC[C@H]2C(=O)NCC(=O)N2CCC[C@H]2C(=O)N[C@@H](CCC(=O)O)C(=O)NCC(=O)NCC(=O)NCC(=O)N[C@@H](CCCCN)C(N)=O)NC(=O)[C@H](Cc2c[nH]c3ccccc23)NC(=O)[C@H](C(C)C)NC(=O)[C@H](CC(C)C)NC(=O)[C@H](C)NC(=O)CNC(=O)[C@H](CO)NC(=O)[C@H](Cc2c[nH]c3ccccc23)NC(=O)[C@H](CC(=O)O)NC(=O)[C@H](CCCNC(=N)N)NC(=O)[C@H](CO)NC1=O [DX1146] (Ac-GCSRDWSGALVWCAGHEPGPEGGGK-NH2; disulfide 2-13)
